In PubChem BioAssay AID602211 (Sanford-Burnham Center for Chemical Genomics, 2012):
The source made the active and inactive calls.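 How the source made its calls: active means mean IC50 at or below 10 µM; inactive means the rest.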

What follows are compounds tested on H9c2 cardiomyocytes, H2O2 protection, ATPLite viability, 2 h (assay: H2O2-induced H9c2 cell death suppression – ATPLite luminescence, set 2, dose response (AID 602211);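 further: potency is for protection so actives keep ATP signal up against peroxide killing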).

Structure (SMILES) | IC50
COc1cc2c(C#CCCCO)c(-c3ccsc3)oc(=O)c2cc1OC | 2.3 µM
O=C(N/N=C/c1ccccn1)c1cc(-c2cccc3ccccc23)n[nH]1 | 6.66 µM
COc1ccccc1-c1cc(NC(C)=O)c2ncc(-c3cccc(C(C)=O)c3)n2c1 | 11.1 µM (inactive)
Brc1ccc(-c2nn3c(-c4ccccn4)nnc3s2)o1 | 27.4 µM (inactive)
Nc1cc2[nH]c(=O)c3ccccc3c2cc1[N+](=O)[O-] | 5.96 µM
COC(=O)C1=C(C)N(CCc2ccc(OC)cc2)C(=O)C1 | 21.9 µM (inactive)
CCCNC(=O)c1ccc(N2CCC3(CC2)CC(c2ccccc2)=NO3)c(NC(=O)c2ccco2)c1 | 4.21 µM
O=C(CN1C(=O)C2CC=CCC2C1=O)Nc1nc(-c2ccc(F)cc2)cs1 (stereo not drawn) | > 79 µM (inactive)
COc1cc(-c2cc3nc(NCCOc4ccccc4)ccn3n2)cc(OC)c1OC | 7.16 µM
CN(CC1COc2ccccc2O1)c1nc(-c2cccnc2)nc2ccccc12 (stereo not drawn) | 25.9 µM (inactive)
O=C(N/N=C/c1cn(-c2ccccc2)nc1-c1cccnc1)c1ccccc1 | 12.7 µM (inactive)
COC(=O)/C(=C(O)\C=C\c1ccccc1[N+](=O)[O-])c1nc2ccccc2[nH]1 | 7.96 µM
O=C(c1ccccc1)c1ccc2nc(N3CCN(C(=O)c4ccco4)CC3)c3nncn3c2c1 | 9.31 µM
COc1cc(C(=O)N/N=C/c2sc(N3CCOCC3)nc2-c2ccccc2)cc(OC)c1OC | 16.9 µM (inactive)
COc1ccnc(Oc2ccccc2)c1C(=O)N/C=N/OCc1ccc(F)cc1Cl | > 79 µM (inactive)
CCOC(=O)c1cc2c(=O)n3ccccc3nc2n(Cc2ccco2)c1=NC(=O)c1cccnc1 | 19 µM (inactive)
CC(C)c1ccccc1NC(=O)COC(=O)c1c2c(nc3ccccc13)CCN(Cc1ccccc1)C2 | 5.25 µM
Cc1cccc(NC(=O)c2nc[nH]c2C(=O)NCCCNC(=O)c2[nH]cnc2C(=O)Nc2cccc(C)c2)c1 | 0.729 µM
CCOc1cc(-c2cc(-c3ccc(N)cc3)nc(N)c2C#N)ccc1O | 5.99 µM
COc1cc(-c2cnc3c(NC=O)cc(-c4cccnc4)cn23)cc(OC)c1OC | 24.6 µM (inactive)
Cc1ccc(C=NNc2nc3c([nH]2)c(=O)n(C)c(=O)n3C)cc1 | 3.93 µM
COc1cc(CN2C[C@@H](CO)O[C@@H](n3cnc4c(Nc5ccccc5)ncnc43)C2)cc(OC)c1OC | 10.6 µM (inactive)
COc1cc(/C=N/n2nnnc2Nc2ccccc2)cc(OC)c1OC | 9.53 µM
CCCn1nc(C(=O)Nc2nc(-c3ccccn3)cs2)c2ccccc2c1=O | 3.37 µM

Structure (SMILES) | IC50
CN(C)S(=O)(=O)n1cc(/C=C(\NC(=O)c2ccccc2F)C(=O)NCCN2CCOCC2)c2ccccc21 | 30.8 µM (inactive)
CCOCc1c(C(=O)NC2=Nc3ccccc3NC(CC)=C2C(=O)OCC)oc2ccccc12 | > 79 µM (inactive)
COc1cc(C(=O)Nc2nc(-c3cccs3)cs2)cc(OC)c1OC | 1.78 µM
CCN1C(=O)/C(=C/c2nc3ccccc3c(=O)[nH]2)c2ccccc21 | 7.84 µM
Cc1c(C(=O)NCC2COc3ccccc3O2)oc2ccc(S(=O)(=O)N3CCOCC3)cc12 (stereo not drawn) | > 79 µM (inactive)
COc1ccc(-c2cc(C(=O)NC(C)c3ccccn3)c3ccccc3n2)cc1OC (stereo not drawn) | 5.39 µM
COc1cc(OC)cc(C(=O)Nc2ccc(C(=O)Nc3ccccc3OC)cc2)c1 | 10.2 µM (inactive)
O=C(Nc1ccc2c(c1)OCO2)c1cnn2c(C(F)(F)F)cc(-c3ccco3)nc12 | 2.58 µM
CC(=O)Nc1cc(-c2cccc(NS(C)(=O)=O)c2)cn2c(-c3cccc(C(C)=O)c3)cnc12 | 15 µM (inactive)
Cc1ccc(-c2csc(N3CCC[C@@H]3C(=O)NCCn3c(-c4ccncc4)nc4ccccc43)n2)cc1 | 2.83 µM
COc1cc(/C=C(\C#N)c2nc3ccc(C)cc3[nH]2)c([N+](=O)[O-])cc1OC | 9.31 µM
CC(C)C1Nc2ccc(C(=O)N3CCN(c4ccccn4)CC3)cc2NC1=O (stereo not drawn) | 22.9 µM (inactive)
O=C(Nc1cccc2cccnc12)c1ccc2sc([C@H]3C[C@H](O)[C@@H](CO)O3)nc2c1 | 4.33 µM
O=C(CNC(=O)c1[nH]cnc1C(=O)NC(c1ccccc1)c1ccccc1)OCc1ccccc1 | 10.1 µM (inactive)
C/C(=N\Nc1nnc2c3ccccc3n(C)c2n1)c1ccc(C)o1 | 10.4 µM (inactive)
O=C(NCC(=O)N(Cc1cccs1)C(C(=O)NC1CCCCC1)c1ccco1)c1cccs1 (stereo not drawn) | 3.23 µM
CCN(C[C@H]1N[C@@](C)(C(=O)OC)[C@H]2C(=O)N(Cc3ccccc3)C(=O)[C@@H]12)C(=O)c1ccc(C(C)(C)C)cc1 | 6.25 µM
Cc1c(C(=O)Nc2ccc3nc(N4CCOCC4)sc3c2)oc2ccccc12 | > 79 µM (inactive)
COc1cc(Nc2nc3ccccc3n3nnnc23)cc(OC)c1OC | 1.38 µM
NC(=O)c1nsc(C(=O)N(c2ccccc2)C(C(=O)NCc2ccc(F)cc2)c2ccc(O)cc2)c1N (stereo not drawn) | 1.98 µM
N#Cc1c(-c2ccco2)cc(-c2ccccn2)nc1N | 28.5 µM (inactive)
CC(C)(C)C(=O)Nc1cccc(-c2nnc(-c3cccc(NC(=O)C(C)(C)C)c3)o2)c1 | 4.79 µM
CCOC(=O)C1CCN(c2cc3c(cc2NC(=O)c2ccc(F)cc2)n(C)c(=O)n3C)CC1 | 25.8 µM (inactive)
COc1ccc(-c2cc(-c3ccc(O)cc3)nc(N)c2C#N)cc1OC | > 79 µM (inactive)
